Target: T1, pig liver glycolate oxidase (Sus scrofa, UniProt I3LVF1)
T1 construct: The enzyme was pig liver glycolate oxidase; from tissue; host or cells: pig liver
T1 sequence (I3LVF1 1-370): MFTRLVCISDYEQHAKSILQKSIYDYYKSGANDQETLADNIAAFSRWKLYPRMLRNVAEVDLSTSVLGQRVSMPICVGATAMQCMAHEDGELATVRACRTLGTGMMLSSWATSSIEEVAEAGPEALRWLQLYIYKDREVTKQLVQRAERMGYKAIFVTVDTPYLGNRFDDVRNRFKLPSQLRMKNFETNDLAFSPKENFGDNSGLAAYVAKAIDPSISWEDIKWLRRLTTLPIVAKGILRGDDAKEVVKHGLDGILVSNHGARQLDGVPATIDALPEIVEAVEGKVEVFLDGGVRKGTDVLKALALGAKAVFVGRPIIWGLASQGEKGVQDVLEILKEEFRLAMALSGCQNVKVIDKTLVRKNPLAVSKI
Experiment: Glycolate Oxidase Enzyme Inhibition
Assay type: biochemical
Settings: 25° C., 0.10 M phosphate buffer, pH 7.0, 3 mM EDTA; 5×10^-5 M sodium 2,6-dichlorophenol-indophenol, 2×10^-4 M sodium glycolate; initial rates 1 to 3 min., 600 nm
Experimental: The usefulness of the compounds of the present invention in treating urinary tract, especially renal, calcium oxalate lithiasis, was shown by the ability of those compounds to inhibit the glycolate oxidase enzyme. […] The activity of the enzyme, in turn, was measured by following the rate of reduction of sodium 2,6-dichlorophenol-indophenol by sodium glycolate in the presence of the enzyme. The enzyme was pig liver glycolate oxidase. The reaction was followed spectrophotometrically at 600 nm. The assay was conducted at 25° C. in a 0.10 M phosphate buffer, pH 7.0, containing 3 mM EDTA. Initial substrate concentrations were 5×10^-5 M of sodium 2,6-dichlorophenol-indophenol and 2×10^-4 M of sodium glycolate. Reactions were initiated by the addition of enzyme. Initial rates during the period from 1 to 3 min. after the addition of enzyme were recorded on a Beckman Acta M-VI spectrophotometer. One control was run simultaneously with three test reactions, and all initial rates were adjusted to a common control rate. For further details of this procedure, see Randall et al., J. Med. Chem. 22, 6, 612 (1979).

IC50: 2100 nM
Compound: O=C1NS(=O)(=O)C(c2ccccc2)=C1O [4-Hydroxy-5-phenyl-3(2H)-isothiazolone-1,1-dioxide]
